Peptide text beside a SMILES is read from it. * marks the point of attachment. Biotin = O=C1N[C@H]2[C@H](CS[C@H]2CCCCC(=O)*)N1; Ahx = NCCCCCC(=O)O
Key:
[1] = test system: HSV-1 KOS mutant hrR3; test: Inactivation of pre-adsorbed virus (virus inactivation); type: cell-based; conditions: pre-adsorbed virus
Experimental: Two assays were used to assess the ability of the TAT peptides to inhibit infection of Vero cells with the hrR3 virus. In both assays, the virus was preadsorbed to cells at 4° C. and entry was initiated in the presence of peptide by shifting the cultures to a permissive temperature (30-37° C.). One hour later, the peptide was rinsed off. The entry blocking activity was measured in half of the cultures, in which any extracellular virus remaining after the peptide treatment was inactivated with low pH citrate buffer. The rest of the cultures were exposed to PBS instead of citrate buffer and used to measure virus inactivation. Virus inactivation depended on persistent effects of the peptide lasting for a period of eight hours. At the end of that period, all cultures were fixed and infected cells were detected by staining with X-gal.
Virus (m.o.i.=0.025) was preadsorbed to Vero cells for 1 h at 4° C. before cultures were exposed to TAT-C (FIG. 15A), bTAT-9X (FIG. 15B), or n50,51TAT-C (FIGS. 15C, 15D) for 1 h at 33 (FIGS. 15A, 15B), 31 (FIG. 15C), or 37° C. (FIG. 15D). […] Inhibition of entry was measured in the citrate-treated cultures, in which any remaining external virus was inactivated immediately following exposure to peptide (●). Persistent virus inactivation lasting, at least in part, for the 8 h period following exposure to peptide, was measured in the PBS-treated cultures (◯). The IC50s measured in these experiments are included in Table 5.

[2] = test system: hrR3 virions; test: Inactivation of virions in solution; type: cell-based, HSV-1; conditions: 200 μM peptide
Experimental: Inactivation of virions: To assess the ability of peptides to inactivate virions, 3-4×10^6 pfu/mL of virus was mixed on ice with peptide in serum-free DMEM and incubated for 1 h at 4 or 37° C. Aliquots (10 μL) were diluted 1000-fold into peptide-free serum-supplemented DMEM at 23° C. and 50 μL aliquots were assayed in triplicate for infectivity in Vero cell cultures (dilution assay). Alternatively, 10 μL aliquots were diluted into 1 mL of ice-cold peptide-free serum-supplemented DMEM and the virus was pelleted as described above (centrifugation assay). Viral pellets were then resuspended in 250 μL serum-supplemented DMEM and 50 μL aliquots were assayed in triplicate for infectivity in Vero cell cultures.
Some of the virus diluted without the addition of NaCl was pelleted immediately (Control), while the rest of the diluted virus was stored at 4° C. and pelleted 19 h later. The virus was pelleted and assayed for infectivity as described in Example 1.

[3] = test system: HSV-1 KOS mutant hrR3; test: Release of preadsorbed virus into the culture medium; type: cell-based
Experimental: Release of preadsorbed virus into the culture medium: Virus preadsorbed to Vero cells (m.o.i.=0.02) was exposed to heparin (porcine intestinal mucosa; Sigma-Aldrich Co., St. Louis Mo.; #H9399) or to peptides in 40 μL of serum-supplemented DMEM. After 1 h at 4° C., the culture medium and two 40 μL rinses were collected and pooled from eight identically treated wells. Pooled samples were centrifuged at 14,000×g in an Eppendorf 5415 centrifuge for 99 min at 4° C. or they were first adjusted to 0.5 M NaCl by adding 2 M NaCl dissolved in serum-supplemented DMEM prior to centrifugation. Supernatants were aspirated, the pellets were resuspended in 120 μL serum-supplemented DMEM and duplicate 50 μL aliquots were assayed for infectivity in Vero cell cultures. Calculations of the amount of released virus assumed 47% virus recovery in the centrifugation step, since control experiments had established that 47% of virus input was recovered regardless of whether the virus was sedimented in the presence or absence of 0.5 M NaCl.
In this example pre-adsorbed virus was exposed to heparin (FIG. 19 Panels A, B) or TAT-Cd peptide (FIG. 19 Panels C, D) for 1 h at 4° C. (FIG. 19 Panels A, B, C) or 18° C. (FIG. 19 Panel D) and any virus released into the culture medium during this time was collected and pelleted in the presence (◯) or absence (▴) of 0.5 M NaCl and assayed for infectivity as described in Example 1. […] Virus inhibition (●) corresponds to the number of LacZ+ cells seen in the absence of inhibitor minus the number of LacZ+ cells seen in the presence of inhibitor and is equivalent to the maximal amount of virus potentially released into the culture medium as a result of virus inhibition. Panel B compares the amount of infectious virus recovered in the presence (◯; data from Panel A) and absence (▴) of 0.5 M NaCl at an expanded scale.

[4] = molecular target: T1, trypsin (Sus scrofa, UniProt P00761); test: Trypsinization of peptides; conditions: 0.005 or 0.01% trypsin, 1 h at 37° C.
T1 construct: purchased BioWhittaker 17-160E
Experimental: Trypsinization of peptides: Peptides dissolved in serum-free DMEM were exposed to 0.005 or 0.01% trypsin for 1 h at 37° C. The trypsin was then inactivated with a 1.3-fold molar excess of soybean trypsin inhibitor and the ability of the peptides to inactivate virions was tested as described above (centrifugation assay). In controls, trypsin was inactivated before it was added to the peptides.
In Panel B, peptides in serum-free medium were pre-treated with active trypsin (open bars) or inactivated trypsin (shaded bars) for 1 h at 37° C. before they were added to virions for 1 h at 37° C. (see Example 1). The treated virions were then pelleted and resuspended in serum-supplemented medium and assayed for infectivity without further trypsinization. The peptide concentrations were as high or higher than those used in Panel A: […] TAT-C, 50 μM bKLA, 200 μM EB and bHOM-9. Trypsin concentrations used in both Panels A and B, were 0.005% (for bKLA, EB and bHOM-9) or 0.01% (for TAT-C and the ‘no peptide’ control).

[5] = test system: cornea; test: In vivo peptide toxicity, cornea; parameters: species or system BALB/C mice
Experimental: (i) Cornea: Four-6-week-old female BALB/C mice (Harlan Sprague Dawley, Indianapolis, Ind.) were anesthetized by halothane inhalation (3-5%). A 2.0 μL drop of serum-free 5×DMEM solution containing 6.1 mM EB, 6.1 mM EBX, 7.5 mM TAT-C, 7.5 mM n50,51 TAT-C, 7.5 mM TAT-Cd, or 11.2 mM bHOMd or serum-free DMEM only (control) was then placed on the cornea and the mice were returned to their cages. Each group consisted of 5 mice, except for 11.2 mM bHOMd, and 7.5 mM TAT-Cd, which consisted of 4 mice. Only the right eye in each mouse received the peptide. Treatments were given 4 times per day at least 2 hrs apart for 7 days. On days 1, 5, and 7, the mice were examined microscopically for evidence of blepharitis, punctate keratopathy, dendrite ulceration and geographic ulceration. Damage to the corneal epithelium was assessed by staining with 1.0% […] and examination under a microscope with blue light. Blepharitis was scored: 1+ for noticeable puffy eyelids, 2+ for puffy eyelids with moderate crusting, 3+ for eye 50% swollen shut with severe crusting, and 4+ for eye totally swollen and crusted shut (Brandt et al., 1992). Punctate keratopathy, dendrite ulceration, and geographic ulceration were scored: 1+ for <25% of the cornea involved, 2+ for 25-50% involved, 3+ for 50-75% involved, and 4+ for >75% involved. The mean disease score for each group of mice on each day was calculated by the sum of disease scores in each group on each day divided by the numbers of mice in that group. On day 7, following the last treatment, the mice were sacrificed and the eyes were removed, fixed in 10% formalin, embedded in paraffin, sectioned (5μ each), and stained with hematoxylin and eosin as we have described previously (Brandt et al., 1996). Sections were then examined for evidence of damage to the cornea, sclera, lens, and retina.

[6] = test system: H5 Avian Influenza virus
[7] = test system: hrR3
[8] = MTS assay; conditions: human, CEMx174 cells (T-B hybridoma)
[9] = MTS assay; conditions: African green monkey, Vero cells
[10] = MTS assay; conditions: human, HeLa cells
[11] = MTS assay; conditions: human, DP-9 cells (foreskin fibroblast)
[12] = MTS assay; conditions: African green monkey, CV-1PD cells (kidney)
[13] = MTS assay; conditions: human, W12E cells (cervical carcinoma cell line)
[14] = MTS assay; conditions: human, NIKS cells (normal immortalized keratinocytes)
[15] = MTS assay; conditions: human, TM-1 cells (trabecular meshwork)
[16] = test system: Vero, HeLa, CV-1PD, TM-1, DP-9, CEMx174, NIKS, W12E cells; test: MTS assay, eight cell lines; conditions: eight cell lines
[17] = test system: vagina; conditions: mouse, in vivo

T1 sequence (P00761 9-231): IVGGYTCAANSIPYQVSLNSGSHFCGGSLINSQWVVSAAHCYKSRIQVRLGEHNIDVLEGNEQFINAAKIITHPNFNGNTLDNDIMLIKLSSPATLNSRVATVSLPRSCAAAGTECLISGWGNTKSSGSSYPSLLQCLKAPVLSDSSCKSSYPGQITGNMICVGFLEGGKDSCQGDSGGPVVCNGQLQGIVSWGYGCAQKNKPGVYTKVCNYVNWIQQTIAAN

N=C(N)NCCC[C@@H](NC(=O)CN)C(=O)N[C@H](CCCCN)C(=O)N[C@H](CCCCN)C(=O)N[C@H](CCCNC(=N)N)C(=O)N[C@H](CCCNC(=N)N)C(=O)N[C@H](CCC(N)=O)C(=O)N[C@H](CCCNC(=N)N)C(=O)N[C@H](CCCNC(=N)N)C(=O)N[C@H](CCCNC(=N)N)C(=O)N[C@H](CS)C(=O)O [TAT-Cd, NH2-GRKKRRQRRRC-COOH]
plateau / maximal extent of virus inactivation [1]: ~100%
recovery of infectious virions, of the mock-treated virus ([2]; 1 h at 37° C., pelleted immediately): < 1%
increase of viral yields by 0.5 M NaCl during 19 h incubation, of the mock-treated controls ([2]; 19 h at 4° C.): about 1%
inactivation of preadsorbed virus ([3]; 18° C.): 93%
virus recovery ([3]; 18° C., 0.5 M NaCl): ≤ 5.6%
potentially released virus actually recovered in the medium ([3]; 1 h treatment at 4° C., 0.5 M NaCl): 4.4%
infectious preadsorbed virus recovered in the culture medium (maximal) ([3]; summary, FIG. 19): about 5%
effect of trypsinization of the peptide on its antiviral activity [4]: no effect on antiviral activity
punctate keratopathy ([5]; calcein staining): very mild punctate keratopathy
blepharitis ([5]; four times a day for seven days): mild blepharitis
concentration at which not active against the H5 strain [6]: > 100 µM
inhibition after rinsing with 0.5 M NaCl ([7]; 30 μM peptide 1 h at 4° C.): completely reversed
infection blocked ([7]; 30 μM peptide 1 h at 4° C., rinsed with culture medium alone): 90%
time needed to induce cellular resistance ([7]; 30 μM peptide, 37° C.): almost instantaneously

CC[C@H](C)[C@H](NC(=O)[C@H](CCCCN)NC(=O)[C@@H](NC(=O)[C@H](CCC(N)=O)NC(=O)[C@H](CCCNC(=N)N)NC(=O)CCCCCNC(=O)CCCC[C@@H]1SC[C@@H]2NC(=O)N[C@@H]21)[C@@H](C)CC)C(=O)N[C@@H](Cc1c[nH]c2ccccc12)C(=O)N[C@@H](Cc1ccccc1)C(=O)N1CCC[C@H]1C(=O)N[C@@H](CC(N)=O)C(=O)N[C@@H](CCCNC(=N)N)C(=O)N[C@@H](CCCNC(=N)N)C(=O)N[C@@H](CCSC)C(=O)N[C@@H](CCCCN)C(=O)N[C@@H](Cc1c[nH]c2ccccc12)C(=O)N[C@@H](CCCCN)C(=O)N[C@@H](CCCCN)C(N)=O [bHOM] ({Biotin-Ahx}-RQIKIWFPNRRMKWKK-NH2; N-terminus and C-terminus assumed)
EC50 [8]: 50 µM
EC50 [9]: 75 µM
EC50 [10]: 100 µM
EC50 [11]: 150 µM
EC50 [12]: 180 µM
EC50 [13]: > 200 µM
EC50 [14]: > 200 µM
EC50 [15]: > 200 µM
cytotoxicity to cells (MTS), overall [16]: generally not cytotoxic

nonoxynol-9 [N−9]
effect on vaginal tissues (H&E sections) [17]: No differences in the appearance of the tissues

Reference: patent US7432045B2 (priority 2003, dated 2008)
